What was measured:
[1] = system: sn-Glycerol 3-phosphate Acyl Transferase; assay: In vivo liver enzyme study: sn-glycerol 3-phosphate acyl transferase; parameters: species or system mouse; conditions: CF1 liver after 16 days i.p.
Description: In vitro enzymatic studies were determined using 10% homogenates of CF1 male mouse liver with 50-200 μM of test drugs. In vivo enzymatic studies were determined using 10% homogenates of liver from CF1 male mice obtained after administering the agents for 16 days at a dose ranging from 2.5-20 mg/kg/day intraperitoneally. The liver homogenates for both in vitro and in vivo studies were prepared in 0.25M sucrose and 0.001M (ethylenedinitrilo)tetraacetic acid. Acetyl coenzyme A synthetase and adenosine triphosphate dependent citrate lyase activities were determined spectrophotometrically at 540 nm as the hydroxylamate of acetyl coenzyme A formed after 30 min at 37° C. Mitochondrial citrate exchange was determined by the procedure of Robinson et al [Eur. J. Biochem., 216, 63 (1970)] using ^14 C-sodium bicarbonate (41 mCi/mmol) incorporated into mitochondrial ^14 C-citrate after isolating rat mitochondria (9000 g×10 min) from the homogenates. The exchanges of the ^14 C-citrate were determined after incubating the mitochondrial fraction which was loaded with labeled citrate and test drugs for 10 min. Then the radioactivity was measured in the mitochondrial and supernantant fractions in scintillation fluid and expressed as a percentage. Cholesterol side chain oxidation was determined by the method of Kritchevsky and Tepper [Artherosclerosis, 18, 93 (1973)] using (26-^14 C) cholesterol (50 mCi/mmol) and mitochondria isolated from rat liver homogenates. […] Fatty acid synthetase activity was determined by the method of Brady et al [J. Biol. Chem., 235, 3093 (1960)] using [2-^14 C] malonyl-coenzyme A (37.5 mCi/mmol) which was incorporated into newly synthesized fatty acids that were extracted with ether and counted. Acyl transferase activity was determined with glycerol-3phosphate [L-2-^3 H(N)] […] HCl and counted. Phosphatidate phosphohydrolase activity was measured as the inorganic phosphate released after 30 min from phosphatidic acid by the method of Mavis et al [J. Lipid Res., 19, 467 (1978)]. […]

[2] = system: Holtzman male rats; assay: Cholesterol absorption study; assay type: in vivo, rat; conditions: rats treated 14 days, over a 24-hr period
Description: Holtzman male rats (~400 g) were administered the test drug orally for 14 days at 10 mg/kg/day. On day 13, 10 μCi of 1,2-^3 H(N)-cholesterol (40.7 Ci/mmol) was administered to the rat orally. Twenty-four hours later, the blood was collected and the serum separated by centrifugation. Both the serum and the precipitate were counted.

[3] = system: Holtzman male rats; assay: Rat liver, small intestine and fecal lipid extraction; assay type: in vivo; conditions: 14 days 10 mg/kg/day orally
[4] = biological target: T1, ribosomal ribonucleic acid polymerase (Mus musculus, UniProt O35134+P70700); assay: In vivo ribosomal ribonucleic acid polymerase activity
T1 construct: enzymes isolated from nuclei; endogenous in cells; host or cells: Ehrlich ascites tumor cell nuclei, ammonium sulfate fraction
T1 sequence (P52432 whole entry): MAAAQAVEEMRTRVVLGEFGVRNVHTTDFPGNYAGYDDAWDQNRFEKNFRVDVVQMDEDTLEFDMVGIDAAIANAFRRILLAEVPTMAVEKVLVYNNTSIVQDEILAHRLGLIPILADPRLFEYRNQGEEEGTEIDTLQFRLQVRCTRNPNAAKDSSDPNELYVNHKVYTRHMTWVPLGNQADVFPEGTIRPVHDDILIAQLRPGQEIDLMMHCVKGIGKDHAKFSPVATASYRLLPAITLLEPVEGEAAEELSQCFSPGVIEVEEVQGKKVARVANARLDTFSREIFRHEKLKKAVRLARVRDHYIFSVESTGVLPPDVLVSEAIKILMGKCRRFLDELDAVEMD
T1 sequence (Q791N7 whole entry, further chain): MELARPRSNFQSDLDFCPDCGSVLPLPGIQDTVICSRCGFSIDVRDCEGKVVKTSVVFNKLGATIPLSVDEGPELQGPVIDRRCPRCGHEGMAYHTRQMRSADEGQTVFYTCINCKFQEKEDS
T1 sequence (P97304 whole entry, further chain): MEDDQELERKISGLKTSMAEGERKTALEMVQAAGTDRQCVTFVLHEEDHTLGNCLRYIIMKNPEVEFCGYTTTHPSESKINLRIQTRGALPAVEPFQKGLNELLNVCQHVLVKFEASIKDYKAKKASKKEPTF
T1 sequence (Q78WZ7 whole entry, further chain): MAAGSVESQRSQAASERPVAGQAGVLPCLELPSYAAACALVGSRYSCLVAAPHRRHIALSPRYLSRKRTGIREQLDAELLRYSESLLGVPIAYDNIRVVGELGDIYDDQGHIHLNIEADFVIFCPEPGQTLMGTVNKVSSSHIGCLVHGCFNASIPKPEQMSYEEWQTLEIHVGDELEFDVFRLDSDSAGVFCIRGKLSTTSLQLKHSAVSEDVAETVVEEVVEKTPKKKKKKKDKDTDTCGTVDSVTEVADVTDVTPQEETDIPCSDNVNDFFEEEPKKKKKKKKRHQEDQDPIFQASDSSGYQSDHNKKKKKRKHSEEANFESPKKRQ
T1 sequence (P70700 whole entry): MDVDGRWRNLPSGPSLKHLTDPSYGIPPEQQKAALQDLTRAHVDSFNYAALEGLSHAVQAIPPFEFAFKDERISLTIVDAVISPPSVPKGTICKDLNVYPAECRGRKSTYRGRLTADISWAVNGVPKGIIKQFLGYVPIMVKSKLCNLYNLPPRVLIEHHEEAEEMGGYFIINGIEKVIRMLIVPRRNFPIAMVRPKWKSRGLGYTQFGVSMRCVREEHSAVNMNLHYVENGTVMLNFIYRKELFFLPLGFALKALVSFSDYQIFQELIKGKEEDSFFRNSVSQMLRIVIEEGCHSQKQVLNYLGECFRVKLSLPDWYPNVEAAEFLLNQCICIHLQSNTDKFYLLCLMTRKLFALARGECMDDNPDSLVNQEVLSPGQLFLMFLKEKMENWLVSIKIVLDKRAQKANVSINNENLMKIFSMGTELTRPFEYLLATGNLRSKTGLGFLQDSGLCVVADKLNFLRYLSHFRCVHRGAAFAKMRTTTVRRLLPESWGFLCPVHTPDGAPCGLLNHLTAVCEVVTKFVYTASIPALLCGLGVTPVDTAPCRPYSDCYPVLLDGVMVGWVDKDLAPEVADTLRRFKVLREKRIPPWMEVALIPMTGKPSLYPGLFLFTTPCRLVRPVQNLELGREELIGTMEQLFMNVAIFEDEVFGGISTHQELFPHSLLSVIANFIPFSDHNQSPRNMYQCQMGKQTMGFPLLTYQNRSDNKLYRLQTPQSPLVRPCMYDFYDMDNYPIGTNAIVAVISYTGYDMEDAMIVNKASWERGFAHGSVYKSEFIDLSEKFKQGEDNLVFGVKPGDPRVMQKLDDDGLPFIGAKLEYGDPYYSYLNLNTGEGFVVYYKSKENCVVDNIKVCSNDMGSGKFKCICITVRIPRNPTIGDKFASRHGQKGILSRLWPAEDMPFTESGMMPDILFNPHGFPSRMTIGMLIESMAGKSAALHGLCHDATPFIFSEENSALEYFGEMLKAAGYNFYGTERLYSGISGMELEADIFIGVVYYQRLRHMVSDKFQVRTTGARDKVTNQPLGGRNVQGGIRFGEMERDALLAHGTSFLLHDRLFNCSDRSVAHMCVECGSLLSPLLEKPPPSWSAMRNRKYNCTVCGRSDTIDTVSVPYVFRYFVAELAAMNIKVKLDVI
T1 sequence (O35134 whole entry): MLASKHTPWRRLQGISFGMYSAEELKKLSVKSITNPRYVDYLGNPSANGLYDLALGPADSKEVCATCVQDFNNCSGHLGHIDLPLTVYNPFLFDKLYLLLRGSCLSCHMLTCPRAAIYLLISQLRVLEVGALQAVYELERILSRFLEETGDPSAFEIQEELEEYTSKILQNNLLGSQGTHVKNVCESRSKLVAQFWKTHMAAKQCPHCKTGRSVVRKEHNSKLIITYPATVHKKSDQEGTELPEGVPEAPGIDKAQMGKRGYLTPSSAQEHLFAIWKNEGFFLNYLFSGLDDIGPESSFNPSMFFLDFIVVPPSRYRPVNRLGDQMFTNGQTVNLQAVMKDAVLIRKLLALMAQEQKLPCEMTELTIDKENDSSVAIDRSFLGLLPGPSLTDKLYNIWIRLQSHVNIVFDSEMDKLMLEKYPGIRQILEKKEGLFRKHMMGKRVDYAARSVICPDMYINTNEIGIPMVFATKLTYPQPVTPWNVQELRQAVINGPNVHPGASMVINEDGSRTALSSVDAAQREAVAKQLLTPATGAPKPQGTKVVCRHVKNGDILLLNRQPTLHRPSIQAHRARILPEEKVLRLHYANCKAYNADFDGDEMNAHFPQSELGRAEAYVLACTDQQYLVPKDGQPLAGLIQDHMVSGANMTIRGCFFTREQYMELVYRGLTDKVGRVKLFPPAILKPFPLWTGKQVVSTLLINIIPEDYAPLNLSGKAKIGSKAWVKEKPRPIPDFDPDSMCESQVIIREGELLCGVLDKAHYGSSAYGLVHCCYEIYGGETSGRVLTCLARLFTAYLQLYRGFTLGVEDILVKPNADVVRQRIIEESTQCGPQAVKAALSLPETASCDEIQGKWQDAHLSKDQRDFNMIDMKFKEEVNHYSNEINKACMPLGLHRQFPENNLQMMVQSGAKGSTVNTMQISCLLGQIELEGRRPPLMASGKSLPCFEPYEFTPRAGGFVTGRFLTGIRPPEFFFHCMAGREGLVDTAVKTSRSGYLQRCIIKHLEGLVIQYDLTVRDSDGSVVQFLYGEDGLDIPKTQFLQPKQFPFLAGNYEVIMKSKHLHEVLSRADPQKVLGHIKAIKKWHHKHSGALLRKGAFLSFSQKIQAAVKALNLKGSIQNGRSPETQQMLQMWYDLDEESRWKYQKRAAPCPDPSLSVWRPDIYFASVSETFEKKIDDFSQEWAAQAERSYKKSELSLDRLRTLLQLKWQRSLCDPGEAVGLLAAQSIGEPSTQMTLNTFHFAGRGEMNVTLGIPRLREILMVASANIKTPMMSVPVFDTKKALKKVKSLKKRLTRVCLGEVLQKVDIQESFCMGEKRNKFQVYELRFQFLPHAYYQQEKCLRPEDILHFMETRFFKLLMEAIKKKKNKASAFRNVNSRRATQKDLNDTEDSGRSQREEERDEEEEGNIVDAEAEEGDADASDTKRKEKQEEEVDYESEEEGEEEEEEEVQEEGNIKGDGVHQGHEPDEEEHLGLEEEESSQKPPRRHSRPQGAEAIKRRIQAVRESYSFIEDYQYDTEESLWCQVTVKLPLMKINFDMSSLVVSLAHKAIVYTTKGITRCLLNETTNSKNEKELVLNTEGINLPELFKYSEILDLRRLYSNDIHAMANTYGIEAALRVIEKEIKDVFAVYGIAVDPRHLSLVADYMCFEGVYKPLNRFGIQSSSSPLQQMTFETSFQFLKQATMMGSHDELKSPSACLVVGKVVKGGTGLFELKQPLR
Description: CF1 male mice (~30 g) were implanted with 2×10^6 Ehrlich ascites tumor cells, intraperitoneally on Day 0. Compound I was suspended by homogenation in 0.05% polysorbate.80-water and administered intraperitoneally at 10 and 20 mg/kg for 9 days to determine its effectiveness for inhibition of tumor growth. Mice were sacrificed on Day 10, and the ascites fluid was collected from the peritoneal cavity. The volume and ascrit (packed cell volume) were determined for each animal and the percent inhibition of tumor growth was calculated. For the metabolic studies, mice were treated on Days 8 and 9 with 10 mg/kg of Compound I, intraperitoneally. The animal was sacrificed on Day 10 and the ascites fluid harvested. The in vitro metabolic studies were performed at […] final concentration of Compound I.
In vitro and in vivo nuclear deoxyribonucleic acid polymerase activity was determined on isolated Ehrlich ascites cell nuclei. The incubation was that described by Sawada et al [Can. Res., 34, 3341 (1974)] except that [methyl-^3 H] deoxythymidine triphosphate (82.4 Ci/mmol) was used. The acid insoluble nucleic acid was collected on GF/F filters and counted. Nuclear ribonucleic acid polymerase activities were determined on enzymes isolated from nuclei. […] The acid insoluble ribonucleic acid was collected on nitrocellulose filters and counted.

[5] = system: Ehrlich ascites lysate protein synthesis; assay: Initiation/elongation of Ehrlich ascites lysate protein synthesis; assay type: biochemical, mouse; conditions: compared with pyrocatechol violet and emetine
Description: An in vitro method was used to determine if compound I was an initiation or an elongation inhibitor of Ehrlich ascites lysate protein synthesis by comparing inhibition with known standards, pyrocateochol violet and emetine, using 1 μCi ^3 H-leucine (24.7 Ci/mmol). The reaction medium was spotted on Whatman #1 filter paper disks, which after drying were treated for 10 min in boiling 5% trichloroacetic acid, for 10 min in cold 5% trichloroacetic acid and washed with cold 5% trichloroacetic acid, ether/ethanol (4:1) and ether. The disks were dried and counted.

For “{Cu[(CH3)3 N.BH2 CO2 ]2.(CH3)3 N.BH2 COOH} [Compound I]”, the “sn-Glycerol 3-phosphate Acyl Transferase” value ([1]; 2.5 mg/kg) was 95 ± 6% of control, the “sn-Glycerol 3-phosphate Acyl Transferase” value ([1]; 5.0 mg/kg) was 95 ± 7% of control and the “sn-Glycerol 3-phosphate Acyl Transferase” value ([1]; 10 mg/kg) was 119 ± 7% of control. For the same substance, the “adsorption of orally administered 3H-cholesterol reduced” value [2] was 85%, the Cholesterol ([3]; rat Feces) was 110 ± 6 Percent Control and the “Mg of Lipid Extracted” value ([3]; rat Feces) was 123 ± 5 Percent Control. The “Neutral Lipids” value ([3]; rat Feces) was 131 ± 7 Percent Control, the Phospholipids ([3]; rat Feces) was 183 ± 8 Percent Control and the Protein ([3]; rat Feces) was 68 ± 6 Percent Control. For the same substance, the Triglyceride ([3]; rat Feces) was 133 ± 7 Percent Control, the Cholesterol ([3]; rat Liver) was 65 ± 6 Percent Control and the “Mg of Lipid Extracted” value ([3]; rat Liver) was 51 ± 5 Percent Control. The “Neutral Lipids” value ([3]; rat Liver) was 93 ± 9 Percent Control, the Phospholipids ([3]; rat Liver) was 93 ± 9 Percent Control and the Protein ([3]; rat Liver) was 99 ± 7 Percent Control. For the same substance, the Triglyceride ([3]; rat Liver) was 76 ± 7 Percent Control, the Cholesterol ([3]; rat Small Intestine) was 47 ± 6 Percent Control and the “Mg of Lipid Extracted” value ([3]; rat Small Intestine) was 43 ± 5 Percent Control. For the same substance, the “Neutral Lipids” value ([3]; rat Small Intestine) was 17 ± 3 Percent Control, the Phospholipids ([3]; rat Small Intestine) was 46 ± 5 Percent Control and the Protein ([3]; rat Small Intestine) was 111 ± 8 Percent Control. For the same substance, the Triglyceride ([3]; rat Small Intestine) was 40 ± 4 Percent Control, the “ribosomal ribonucleic acid polymerase activity” value [4] was “not affected” and the “Ribosmoal ribonucleic acid polymerase activity” value ([4]; 10 mg/kg/day I.P. on Days 8 and 9) was 96 ± 11 % Control. For the same substance, the “inhibition of protein synthesis of Ehrlich ascites lysates (initiation vs elongation)” value [5] was “lag of several minutes before inhibition is observed”.

Source: US4550186A, “Binuclear copper (II) carboxylates formed from amine-carboxyboranes” (Duke University, priority 1983, dated 1985)
